Patent US20250281929A1, “MICROFLUIDIC DEVICE AND USES THEREOF” (CASE WESTERN RESERVE UNIVERSITY, priority 2020, published 2025)

Experiments:
healthy RBCs = experiment: microfluidic assay of RBC mediated microvascular occlusion (micropillar arrays with integrated electrical impedance measurement); type: cell-based, human; details: RBCs stiffened with 0.08% w/v glutaraldehyde 10 min, 20% hematocrit, mean±SD, N=4; for RBC Electrical Impedance Index (REI): impedance at 10 kHz
Description: In order to validate the microfluidic device functionality of assessing RBC mediated microvascular occlusion, healthy RBCs were isolated and treated with 0.08% w/v glutaraldehyde (Sigma Aldrich) for 10 min at room temperature. The glutaraldehyde-stiffened RBCs were then washed with PBS, mixed with untreated healthy RBCs from the same donor at either 1% or 2% v/v ratio, and re-suspended in PBS at 20% hematocrit for testing. Healthy RBCs from the same healthy donor were included in the study design as control.
Microchannels were initially washed with absolute ethanol (100%) and PBS, which was followed by incubation with 2% bovine serum albumin (BSA) overnight to prevent non-specific binding of RBCs to the channel walls. A Flow-EZ™ microfluidic flow control system (Fluigent, Lowell, MA) was used to regulate the flow (FIG. 12). An impedance analyzer (Agilent 4294A, Santa Clara, CA) coupled with a custom printed-circuit board was used to perform electrical impedance measurements. Briefly, impedance magnitude across each of the 3-μm to 10-μm micropillar arrays was recorded over the frequency range of 40 Hz-1 MHz before introducing blood into the microchannel and after completing the washing step. […]
Prior to the experiment, PBS was perfused through the microchannel at 100 mBar for 15 min to allow for any volumetric changes of the microchannel. Thereafter, the baseline impedance reading was obtained for each micropillar array without stopping the PBS flow. […] A second impedance reading was then obtained for each micropillar array upon the conclusion of the post-perfusion wash step. […] For select experiments, the electrical impedance of the 3-μm micropillar array was continuously monitored over the entire duration of the experiment.
To determine the association between the electrical impedance change and microcapillary occlusion in the microchannel, an Olympus IX83 inverted motorized microscope with Olympus CellSense live-cell imaging and analysis software were used to obtain high-resolution microscopic images. The images were further processed by Adobe Photoshop software (San Jose, CA), in which the obstructed microcapillaries were manually counted. […]
[formula] [formula] • where, • n=Total number of capillary networks within the area of interest • i=The i^th capillary network within the area of interest • Oi; =The number of microcapillary occlusion in the i^th capillary network • Ni=Total number of microcapillaries in the i^th capillary network • Ii1=The first electrical impedance reading of the i^th capillary network • Ii2=The second electrical impedance reading of the i^th capillary network […]

RBC = experiment: MIRCA functional assay of RBC deformability, quantitative microcapillary occlusion (Occlusion Index); type: cell-based, human; details: people with variant SCD (HbSC) and SCA (HbSS)
Source text: Abnormal RBC deformability contributes to the underlying pathophysiology of SCD, and we tested this in variant SCD and sickle cell trait (SCT). We have developed MIRCA, a novel functional assay of RBC deformability, assessed by quantitative microcapillary occlusion (‘Occlusion Index, OI’, FIG. 18). This in vitro test recapitulates key geometric features of the capillary bed: >80,000 narrow openings and side anastomoses ‘on-a-chip’, under normoxia or hypoxia (FIG. 18).

[1] = sample 98% healthy RBCs and 2% stiff RBCs
[2] = sample 99% healthy RBCs and 1% stiff RBCs

SMILES | RBC Electrical Impedance Index (REI) (healthy RBCs; [1]) [%] | RBC Occlusion Index (ROI) (healthy RBCs; [1]) [%] | RBC Electrical Impedance Index (REI) (healthy RBCs; [2]) [%] | RBC Occlusion Index (ROI) (healthy RBCs; [2]) [%] | association of RBC Occlusion Index (OI) with drug use (RBC)
O=CCCCC=O [glutaraldehyde] | 20.99 | 36.16 | 9.40 | 17.15 | 
NC(=O)NO [hydroxyurea] |  |  |  |  | inversely associated
